Measurements published in patent publication US11760751B2, “Benzo 2-azaspiro[4.4]nonane compound and use thereof” (HELIOEAST PHARMACEUTICAL CO., LTD., priority 2020, dated 2023).
Structures can show the parent of a compound that is named as a salt.

Experiments:
S1PR1 = molecular target: T1, S1PR1 (Homo sapiens, UniProt P21453); assay: In vitro S1PR1 agonistic activity, PathHunter cell line, chemiluminescent detection; type: cell-based; conditions: for EC50: 90-180 min at 37° C.; for Emax: % activity vs maximum control ligand
T1 construct: expressed in transfected cells
Method: Test Embodiment 1: In Vitro Evaluation of the Agonistic Activity of the Compounds of the Present Disclosure on S1PR1
Experimental objective: to detect the agonistic activity of compounds on S1PR1
I. Cell Treatment • 1. A PathHunter cell line was thawed according to standard procedures; • 2. the cells were inoculated in a 20 μL 384-well microplate and incubated at 37° C. for appropriate time.
II. Agonist • 1. For agonist determination, cells were incubated with samples to be tested to induce a reaction; • 2. a storage solution to be tested was 5-fold diluted into a buffer; • 3. 5 μL of the 5-fold dilution was added to the cells and incubated at 37° C. for 90-180 minutes. The vehicle concentration was 1%.
III. Signal Detection • 1. 12.5 μL or 15 μL of PathHunter detection reagent at a volume ratio of 50% was added at a time, and then incubated at room temperature for 1 hour to generate a detection signal; • 2. the microplate was read with a PerkinElmer Envision™ instrument for chemiluminescent signal detection.
IV. Data Analysis • 1. Activity analysis of the compound was carried out by using CBIS data analysis kit (ChemInnovation, CAA); • 2. calculation formula: % activity=100%×(average test sample RLU−average vehicle RLU)/(average maximum control ligand−average vehicle RLU)

[1] = Pharmacokinetic evaluation in CD-1 mice (intravenous and oral); type: in vivo; conditions: male, mouse, plasma
Method: Test Embodiment 4: Pharmacokinetic Evaluation of Compound in Mice
Experimental objective: to test the pharmacokinetics of the compound in CD-1 mice
CD-1 mice (male, 20-40 g, 6-10 weeks old, Shanghai BK)
(§1) The standard protocol was used to test the pharmacokinetic characteristics of rodents after intravenous injection and oral administration of the compound. In the experiment, the candidate compound was prepared into a clear solution or a suspension, and administrated to two mice by single intravenous injection and oral administration. The vehicle for intravenous injection was a 5:95 DMSO and 10% hydroxypropyl β-cyclodextrin aqueous solution, and the vehicle for oral administration was a 0.5% w/v methylcellulose and 0.2% w/v tween 80 aqueous solution. Whole blood samples within 24 hours were collected, centrifuged at 3200 g for 10 minutes, and the supernatant was separated to obtain plasma samples. 4-fold volume of acetonitrile solution containing internal standard was added thereto to precipitate protein. The mixture was centrifuged, and the supernatant was taken, and an equal volume of water was added thereto. Then the mixture was centrifuged and the supernatant was taken for injection. The blood drug concentration was quantitatively analyzed by LC-MS/MS analysis method, and pharmacokinetic parameters, such as peak concentration, clearance rate, half-life, area under the drug-time curve and bioavailability, were calculated.

[2] = Pharmacokinetic evaluation in SD rats (intravenous and oral); type: in vivo; conditions: male, Sprague-Dawley, plasma, SD rat; for Cmax / bioavailability: intravenous 1.0 mg/kg; for Cmax: oral 2.0 mg/kg (route of Cmax not stated), read-out: Peak concentration Cmax; for bioavailability: oral 2.0 mg/kg, read-out: Bioavailability F; for clearance / Vd: intravenous injection 1.0 mg/kg (oral 2.0 mg/kg); for clearance: read-out: Clearance rate CL; for Vd: read-out: Tissue distribution Vdss; for AUC(0-t) / half-life: oral administration 2.0 mg/kg; for AUC(0-t): read-out: Area under the drug-time curve AUC0-last PO; for half-life: read-out: Half-life T1/2 (PO) (converted)
Method: Test Embodiment 3: Pharmacokinetic Evaluation of Compound in Rats
Experimental objective: to test the pharmacokinetics of the compound in SD rats
Sprague Dawley rat (male, 200-300 g, 7-9 weeks old, Shanghai SLAC)
as §1, with “A standard” for “The standard”, “clear solution,” for “clear solution or a suspension,”, “to rats” for “to two mice”, “hydroxypropyl cyclodextrin” for “hydroxypropyl β-cyclodextrin”, “at 3000” for “at 3200”, “for 15” for “for 10”

T1 sequence (P21453 whole entry): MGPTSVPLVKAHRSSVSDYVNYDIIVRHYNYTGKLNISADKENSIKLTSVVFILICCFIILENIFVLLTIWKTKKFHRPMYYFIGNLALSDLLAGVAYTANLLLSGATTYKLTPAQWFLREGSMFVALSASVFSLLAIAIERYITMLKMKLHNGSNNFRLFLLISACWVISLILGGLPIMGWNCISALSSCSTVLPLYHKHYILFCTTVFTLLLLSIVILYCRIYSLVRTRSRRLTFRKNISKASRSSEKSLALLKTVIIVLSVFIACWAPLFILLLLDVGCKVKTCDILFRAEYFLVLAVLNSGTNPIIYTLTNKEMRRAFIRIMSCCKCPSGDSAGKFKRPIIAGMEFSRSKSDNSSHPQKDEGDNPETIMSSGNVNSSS

Row | EC50 (S1PR1) [nM] | Emax (S1PR1) [%] | SMILES | further results
1 | 0.129 | 88.6 | COCC(=O)N1CCC2(CCc3c(-c4noc(-c5ccc(OC(C)C)c(C#N)c5)n4)cccc32)C1 (stereo not drawn) [Compound 3] | 
2 | 0.107 | 99.4 | CC(C)Oc1ccc(-c2nc(-c3cccc4c3CCC43CCN(C(=O)CC#N)C3)no2)cc1C#N (stereo not drawn) [Compound 4] | 
3 | 0.0688 | 85.1 | CC(C)Oc1ccc(-c2nc(-c3cccc4c3CCC43CCN(C(=O)CCC(=O)O)C3)no2)cc1C#N (stereo not drawn) [Compound 5] | 
4 | 0.123 | 90.7 | CC(C)Oc1ccc(-c2nc(-c3cccc4c3CCC43CCN(C(=O)CS(C)(=O)=O)C3)no2)cc1C#N (stereo not drawn) [Compound 7] | 
5 | 0.188 | 96.8 | CC(C)Oc1ncc(-c2nc(-c3cccc4c3CCC43CCN(C(=O)CO)C3)no2)cc1C#N (stereo not drawn) [Compound 8] | Cmax ([1]; intravenous 0.5 mg/kg, oral 2.0 mg/kg (route of Cmax not stated), read-out: Peak concentration Cmax): 2280 ng/mL; bioavailability ([1]; intravenous 0.5 mg/kg, oral 2.0 mg/kg, read-out: Bioavailability F): 80.3%; clearance ([1]; intravenous injection 0.5 mg/kg (oral 2.0 mg/kg), read-out: Clearance rate CL): 3.58 mL/min/kg; Vd ([1]; intravenous injection 0.5 mg/kg (oral 2.0 mg/kg), read-out: Tissue distribution Vdss): 0.816 L/kg; AUC(0-t) ([1]; oral administration 2.0 mg/kg, read-out: Area under the drug-time curve AUC0-last PO): 16.3 µM·h; half-life ([1]; oral administration 2.0 mg/kg, read-out: Half-life T1/2 (PO) (converted)): 2.9 h
6 | 2.15 | 75.8 | N#Cc1cc(-c2nc(-c3cccc4c3CCC43CCN(C(=O)CO)C3)no2)ccc1OC1CCCC1 (stereo not drawn) [Compound 9] | 
7 | 1.31 | 101 | CC(C)Oc1ccc(-c2nc(-c3cccc4c3CCC43CCN(C(=O)CO)C3)no2)cc1Br (stereo not drawn) [Compound 10] | 
8 | 1.78 | 84.6 | CC(C)Oc1ccc(-c2nc(-c3cccc4c3CCC43CCN(C(=O)CO)C3)no2)cc1Cl (stereo not drawn) [Compound 11] | 
9 | 0.477 | 87.6 | CC(C)Oc1ccc(-c2nc(-c3cccc4c3CCC43CCN(C(=O)CO)C3)no2)cc1C(F)F (stereo not drawn) [Compound 12] | 
10 | 10.7 | 77.8 | CC(C)Nc1ncc(-c2nc(-c3cccc4c3CCC43CCN(C(=O)CO)C3)no2)cc1C#N (stereo not drawn) [Compound 13] | 
11 | 1.59 | 82.2 | CC(C)Oc1ccc(-c2ncc(-c3cccc4c3CCC43CCN(C(=O)CO)C3)s2)cc1C#N (stereo not drawn) [Compound 14] | 
12 | 2.2 | 98.9 | CC(C)Oc1ccc(-c2nnc(-c3cccc4c3CCC43CCN(C(=O)CO)C3)s2)cc1C#N (stereo not drawn) [Compound 15] | 
13 | 14.4 | 77.8 | CC(C)Oc1ccc(-c2nsc(-c3cccc4c3CCC43CCN(C(=O)CO)C3)n2)cc1C#N (stereo not drawn) [Compound 16] | 
14 | 8.59 | 80.8 | N#Cc1cc(-c2nc(-c3cccc4c3CCC43CCN(C(=O)CO)C3)no2)ccc1OC(F)F (stereo not drawn) [Compound 17] | 
15 | 4.06 | 84.2 | CC(C)Oc1ccc(-c2ncc(-c3cccc4c3CCC43CCN(C(=O)CO)C3)cn2)cc1C#N (stereo not drawn) [Compound 18] | 
16 | 3.25 | 77.8 | CC(C)Oc1ccc(-c2cnc(-c3cccc4c3CCC43CCN(C(=O)CO)C3)cn2)cc1C#N (stereo not drawn) [Compound 19] | 
17 | 9.39 | 90.4 | CC(C)Oc1ccc(-c2nc(-c3cccc4c3CCC43CCN(C(=O)CO)C3)ns2)cc1C#N (stereo not drawn) [Compound 20] | 

Row | EC50 (S1PR1) [nM] | Emax (S1PR1) [%] | SMILES | further results
18 | 21.7 | 70.8 | CC(C)Oc1ccc(-c2ncc(-c3cccc4c3CCC43CCN(C(=O)CO)C3)o2)cc1C#N (stereo not drawn) [Compound 21] | 
19 | 2.82 | 102 | COc1cc(-c2nc(-c3cccc4c3CCC43CCN(CC4(C(=O)O)CC4)C3)no2)cc(C2CCCC2)n1 (stereo not drawn) [Compound 40] | Cmax [2]: 357 ng/mL; bioavailability [2]: 63.9%; clearance [2]: 5.47 mL/min/kg; Vd [2]: 5.99 L/kg; AUC(0-t) [2]: 7.14 µM·h; half-life [2]: 8.83 h
20 | 0.29 | 126 | CC(C)Oc1ccc(-c2nc(-c3cccc4c3CCC43CCN(C(=O)[C@@H](O)CO)C3)no2)cc1C#N (stereo partly drawn) [Compound 45] | Cmax [2]: 1180 ng/mL; bioavailability [2]: 59.2%; clearance [2]: 1.59 mL/min/kg; Vd [2]: 1.94 L/kg; AUC(0-t) [2]: 22.9 µM·h; half-life [2]: 13.2 h
21 | 0.865 | 115 | CC(C)Oc1ccc(-c2nc(-c3cccc4c3CCC43CCN(C(=O)CN)C3)no2)cc1C#N (stereo not drawn) [Hydrochloride of compound 6] | 
22 | 0.0353 | 68.3 | CC(C)Oc1ccc(-c2nc(-c3cccc4c3CCC43CCN(CC4(C(=O)O)CCC4)C3)no2)cc1C#N (stereo not drawn) [Hydrochloride of compound 23] | 
23 | 4.99 | 87.1 | CC(C)Oc1ccc(-c2nc(-c3cccc4c3CCC43CCN(CC4(C(=O)O)CC4)C3)ns2)cc1C#N (stereo not drawn) [Hydrochloride of compound 24] | 
24 | 11.5 | 82.1 | CC(C)Oc1ccc(-c2ncc(-c3cccc4c3CCC43CCN(CC4(C(=O)O)CC4)C3)cn2)cc1C#N (stereo not drawn) [Hydrochloride of compound 25] | 
25 | 4.47 | 73.8 | CC(C)Oc1ccc(-c2ncc(-c3cccc4c3CCC43CCN(CC4(C(=O)O)CC4)C3)s2)cc1C#N (stereo not drawn) [Hydrochloride of compound 26] | 
26 | 9.78 | 63.4 | CC(C)Oc1ccc(-c2ncc(-c3cccc4c3CCC43CCN(CC4(C(=O)O)CC4)C3)o2)cc1C#N (stereo not drawn) [Hydrochloride of compound 27] | 
27 | 1.32 | 77.7 | CC(C)Oc1ccc(-c2nnc(-c3cccc4c3CCC43CCN(CC4(C(=O)O)CC4)C3)s2)cc1C#N (stereo not drawn) [Hydrochloride of compound 28] | 
28 | 0.047 | 94.1 | O=C(O)C1(CN2CCC3(CCc4c(-c5noc(-c6ccc(C7CCCCC7)c(C(F)(F)F)c6)n5)cccc43)C2)CC1 (stereo not drawn) [Hydrochloride of compound 37] | 
29 | 0.041 | 100 | O=C(O)C1(CN2CCC3(CCc4c(-c5noc(-c6ccc(C7CCCC7)c(C(F)(F)F)c6)n5)cccc43)C2)CC1 (stereo not drawn) [Hydrochloride of compound 38] | 
30 | 3.46 | 144 | CC(C)Oc1ncc(-c2nc(-c3cccc4c3CCC43CCN(CC4(C(=O)O)CC4)C3)no2)cc1Cl (stereo not drawn) [Hydrochloride of compound 39] | 
31 | 0.1 | 108 | CC(C)Oc1ccc(-c2nc(-c3cccc4c3CCC43CCN(CC4(C(=O)O)CC4)C3)no2)cc1C(F)(F)F (stereo not drawn) [Hydrochloride of compound 43] | 
32 | 0.72 | 104 | CC(C)Oc1ccc(-c2nc(-c3cccc4c3CCC43CCN(C(=O)[C@H](O)CO)C3)no2)cc1C#N (stereo partly drawn) [Hydrochloride of compound 44] | 
33 | 5.76 | 105 | CC(C)Cc1ccc(-c2nc(-c3cccc4c3CCC43CCN(CC4(C(=O)O)CC4)C3)no2)cc1 (stereo not drawn) [Hydrochloride of compound 46] | 
